Source: ChEMBL document CHEMBL4052584, “Toward Understanding the Structural Basis of Partial Agonism at the Dopamine D3 Receptor” (J Med Chem, 2017)
The source made the active and inactive calls. The rule behind the calls is not given here.

Legend:
Homo sapiens = species: Homo sapiens; test: Selectivity ratio of Ki for human dopamine D2 receptor to Ki for human dopamine D3 receptor
D(2) dopamine receptor = D(2) dopamine receptor (Homo sapiens, UniProt P14416); test: Displacement of [3H]-N-methylspiperone from human dopamine D2 receptor expressed in HEK293 cells after 1 hr by MicroBeta microplate counting method; type: cell-based
Sequence of D(2) dopamine receptor (P14416 whole entry): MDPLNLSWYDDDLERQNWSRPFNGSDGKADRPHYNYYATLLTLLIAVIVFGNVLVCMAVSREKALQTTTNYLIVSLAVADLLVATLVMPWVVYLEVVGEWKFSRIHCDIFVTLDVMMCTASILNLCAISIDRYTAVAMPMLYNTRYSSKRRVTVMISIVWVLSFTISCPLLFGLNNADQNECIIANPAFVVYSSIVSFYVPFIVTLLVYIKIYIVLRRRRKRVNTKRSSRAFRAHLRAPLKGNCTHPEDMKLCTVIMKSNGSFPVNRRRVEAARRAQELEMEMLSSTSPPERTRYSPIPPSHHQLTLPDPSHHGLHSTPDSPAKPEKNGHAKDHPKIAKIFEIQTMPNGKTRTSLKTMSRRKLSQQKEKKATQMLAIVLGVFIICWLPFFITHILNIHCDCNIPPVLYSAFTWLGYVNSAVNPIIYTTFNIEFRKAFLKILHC

D(3) dopamine receptor [1] = biological target: T1, D(3) dopamine receptor (Homo sapiens, UniProt P35462); test: Displacement of [3H]-N-methylspiperone from human dopamine D3 receptor expressed in HEK293 cells after 1 hr by MicroBeta microplate counting method; type: cell-based
T1 sequence (P35462 whole entry): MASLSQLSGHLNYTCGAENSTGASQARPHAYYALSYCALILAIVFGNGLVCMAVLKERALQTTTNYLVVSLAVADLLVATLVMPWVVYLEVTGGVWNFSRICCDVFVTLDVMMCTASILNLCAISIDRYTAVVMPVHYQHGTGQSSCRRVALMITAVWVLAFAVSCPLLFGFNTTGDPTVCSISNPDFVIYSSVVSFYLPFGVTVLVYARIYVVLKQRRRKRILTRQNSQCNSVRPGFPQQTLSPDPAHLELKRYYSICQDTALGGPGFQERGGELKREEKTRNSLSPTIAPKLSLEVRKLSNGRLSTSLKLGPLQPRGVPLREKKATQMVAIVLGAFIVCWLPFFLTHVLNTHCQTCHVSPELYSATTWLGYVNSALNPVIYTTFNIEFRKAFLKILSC

D(3) dopamine receptor [2] = biological target: T1, D(3) dopamine receptor; test: Partial agonist activity at dopamine D3 receptor (unknown origin) expressed in HEK293 cells at 10 pM to 100 uM after 2 mins by BRET-based Go activation assay relative to dopamine; type: cell-based; details: for Emax: 10 pM
D(3) dopamine receptor [3] = biological target: T1, D(3) dopamine receptor; test: Partial agonist activity at dopamine D3 receptor (unknown origin) expressed in HEK293 cells at 10 pM to 100 uM after 30 mins by beta-arrestin recruitment assay relative to dopamine; type: cell-based

Compound `O=C(NCCC(O)CN1CCN(c2cccc(Cl)c2Cl)CC1)c1cnc2ccccc2c1` (racemic) has a Ratio Ki (Homo sapiens) of 63, a Ki (D(2) dopamine receptor) of 0.268 µM and a Ki (D(3) dopamine receptor [1]) of 0.00426 µM.
`O=C(NCC[C@H](O)CN1CCN(c2cccc(Cl)c2Cl)CC1)c1cnc2ccccc2c1` showed an Emax (D(3) dopamine receptor [2]) of 53.9%, a Ratio Ki (Homo sapiens) of 14 and a Ki (D(2) dopamine receptor) of 0.316 µM. For the same compound, the Activity (D(3) dopamine receptor [3]) was “Active” and the Ki (D(3) dopamine receptor [1]) was 0.0234 µM.
`CC[C@H](O)CN1CCN(c2cccc(Cl)c2Cl)CC1` gave an Emax (D(3) dopamine receptor [2]) of 58.6%, a Ratio Ki (Homo sapiens) of 3 and a Ki (D(2) dopamine receptor) of 0.0931 µM. For the same compound, the Activity (D(3) dopamine receptor [3]) was “Active” and the Ki (D(3) dopamine receptor [1]) was 0.0343 µM.
`O=C(NCC[C@@H](O)CN1CCN(c2cccc(Cl)c2Cl)CC1)c1cnc2ccccc2c1` showed an Emax (D(3) dopamine receptor [2]) of 19.9%, a Ratio Ki (Homo sapiens) of 49 and a Ki (D(2) dopamine receptor) of 0.202 µM. The Activity (D(3) dopamine receptor [3]) was “inactive” and the Ki (D(3) dopamine receptor [1]) was 0.00412 µM.
`C[C@@H](O)CN1CCN(c2cccc(Cl)c2Cl)CC1` showed a Ratio Ki (Homo sapiens) of 4, a Ki (D(2) dopamine receptor) of 1.4 µM and a Ki (D(3) dopamine receptor [1]) of 0.373 µM.
Work on `C[C@H](O)CN1CCN(c2cccc(Cl)c2Cl)CC1` yielded a Ratio Ki (Homo sapiens) of 4, a Ki (D(2) dopamine receptor) of 0.317 µM and a Ki (D(3) dopamine receptor [1]) of 0.0752 µM.
With `O=C(NCC[C@@H](O)CN1CCN(c2cccc(Cl)c2Cl)CC1)c1cc2ccccc2[nH]1` the Emax (D(3) dopamine receptor [2]) was 14.9% and the Activity (D(3) dopamine receptor [3]) was “inactive”.
In the case of `CCCCN1CCN(c2cccc(Cl)c2Cl)CC1`, the Activity (D(3) dopamine receptor [2]; 10 pM to 100 uM) is reported as “inactive” and the Ratio Ki (Homo sapiens) is reported as 2.
In the case of `O=C(NCCCCN1CCN(c2cccc(Cl)c2Cl)CC1)c1cnc2ccccc2c1`, the Emax (D(3) dopamine receptor [2]) is reported as 20.9%, the Ratio Ki (Homo sapiens) is reported as 58 and the Ki (D(2) dopamine receptor) is reported as 0.01 µM. The Ki (D(3) dopamine receptor [1]) was 0.000172 µM.
Work on `CC[C@@H](O)CN1CCN(c2cccc(Cl)c2Cl)CC1` yielded an Emax (D(3) dopamine receptor [2]) of 11.6%, a Ratio Ki (Homo sapiens) of 5 and a Ki (D(2) dopamine receptor) of 0.588 µM. The Activity (D(3) dopamine receptor [3]) was “inactive” and the Ki (D(3) dopamine receptor [1]) was 0.119 µM.
For `O=C(NCC[C@H](O)CN1CCN(c2cccc(Cl)c2Cl)CC1)c1cc2ccccc2[nH]1`, the Emax (D(3) dopamine receptor [2]) was 55.7% and the Activity (D(3) dopamine receptor [3]) was “Active”.
